Where no end group is shown, it is not given here.
Assays:
Test in all cases: micro-dilution assay (MBC, LD90)
Assay type in all cases: cell-based
[1] = system: Pseudomonas aeruginosa ATCC 11446
Outline: (§1)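 MBC (99.9% killing) and LD90 (90% killing) come from CFU counts normalised to an untreated growth control. Organisms grown in BHI, washed into 10 mM sodium phosphate buffer pH 7.2 at 10^4 cells/ml, then incubated 2 h with hβD2 (final 0.0125–100 mg/l) before plating.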

[2] = system: Proteus vulgaris UR 1464/03 (wild-type)
Outline: as §1

E. coli ATCC 25922 = system: E. coli ATCC 25922
Outline: as §1

[3] = system: Candida albicans ATCC 10231
Outline: as §1

[4] = system: Candida albicans ATCC 24433
Outline: as §1

[5] = system: Streptococcus pneumoniae DSM 11865 (Penr)
Outline: as §1

[6] = system: Proteus vulgaris BK 8730/99 (wild-type)
Outline: as §1

[7] = system: Pseudomonas fluorescens NCTC 10038
Outline: as §1

[8] = system: Corynebacterium pseudodiphtheriae RV A1/95
Outline: as §1

[9] = system: Pseudomonas aeruginosa CF 453 Va mr (wild-type)
Outline: as §1

[10] = system: Providencia rettgeri NCTC 7475
Outline: as §1

[11] = system: Actinobacillus actinommycetemcomitans NCTC 10979
Outline: as §1

[12] = system: Propionibacterium acnes NCTC 737
Outline: as §1

[13] = system: Pseudomonas putida BK 4912
Outline: as §1

[14] = system: Fusobacterium nucleatum ATCC 10953
Outline: as §1

[15] = system: Pseudomonas aeruginosa ATCC 39324
Outline: as §1

[16] = system: Citrobacter freundii UR 1776/03 (wild-type)
Outline: as §1

[17] = system: Eikenella corrodens (wild-type)
Outline: as §1

[18] = system: Acinetobacter baumannii ATCC 19606
Outline: as §1

[19] = system: Pseudomonas aeruginosa CF 645 (mukoid)(wild-type)
Outline: as §1

[20] = system: Stenotrophomonas maltophilia ATCC 10257
Outline: as §1

[21] = system: Pseudomonas aeruginosa CF 509 mr (wild-type)
Outline: as §1

[22] = system: Yersinia enterococcus NCTC 11174
Outline: as §1

[23] = system: Aeeromonas hydrophila ATCC 7966
Outline: as §1

[24] = system: Citrobacter freundii BK 2122/00 (wild-type)
Outline: as §1

[25] = system: Prevotella intermedia ATCC 25611
Outline: as §1

human β-defensin-2 (GIGDPVTCLKSGAICHPVFCPRRYKQIGTCGLPGTKCCKKP; ends and bridges not checked; cysteine pairing not given here) [hβD2, recombinant hβD2]
LD 90 = μg/ml 90% killing [1]: 12.5 µg/mL | MBC = μg/ml 99.9% killing [1]: 12.5 µg/mL | LD 90 = μg/ml 90% killing [2]: 3.125 µg/mL | MBC = μg/ml 99.9% killing [2]: 12.5 µg/mL | LD 90 = μg/ml 90% killing (E. coli ATCC 25922): 6.25 µg/mL | MBC = μg/ml 99.9% killing (E. coli ATCC 25922): 12.5 µg/mL | LD 90 = μg/ml 90% killing [3]: 12.5 µg/mL | MBC = μg/ml 99.9% killing [3]: 25 µg/mL | LD 90 = μg/ml 90% killing [4]: 3.125 µg/mL | MBC = μg/ml 99.9% killing [4]: 25 µg/mL | LD 90 = μg/ml 90% killing [5]: 50 µg/mL | MBC = μg/ml 99.9% killing [5]: 100 µg/mL | LD 90 = μg/ml 90% killing [6]: 100 µg/mL | MBC = μg/ml 99.9% killing [6]: >100 µg/mL | LD 90 = μg/ml 90% killing [7]: 6.25 µg/mL | MBC = μg/ml 99.9% killing [7]: 25 µg/mL | LD 90 = μg/ml 90% killing [8]: 12.5 µg/mL | MBC = μg/ml 99.9% killing [8]: 12.5 µg/mL | LD 90 = μg/ml 90% killing [9]: 12.5 µg/mL | MBC = μg/ml 99.9% killing [9]: 25 µg/mL | LD 90 = μg/ml 90% killing [10]: 100 µg/mL | MBC = μg/ml 99.9% killing [10]: >100 µg/mL | LD 90 = μg/ml 90% killing [11]: 100 µg/mL | MBC = μg/ml 99.9% killing [11]: >100 µg/mL | LD 90 = μg/ml 90% killing [12]: 50 µg/mL | MBC = μg/ml 99.9% killing [12]: 100 µg/mL | LD 90 = μg/ml 90% killing [13]: 6.25 µg/mL | MBC = μg/ml 99.9% killing [13]: 12.5 µg/mL | LD 90 = μg/ml 90% killing [14]: 3.125 µg/mL | MBC = μg/ml 99.9% killing [14]: 3.125 µg/mL | LD 90 = μg/ml 90% killing [15]: 12.5 µg/mL | MBC = μg/ml 99.9% killing [15]: 25 µg/mL | LD 90 = μg/ml 90% killing [16]: 1.56 µg/mL | MBC = μg/ml 99.9% killing [16]: 6.25 µg/mL | LD 90 = μg/ml 90% killing [17]: 50 µg/mL | MBC = μg/ml 99.9% killing [17]: 50 µg/mL | LD 90 = μg/ml 90% killing [18]: 12.5 µg/mL | MBC = μg/ml 99.9% killing [18]: 25 µg/mL | LD 90 = μg/ml 90% killing [19]: 25 µg/mL | MBC = μg/ml 99.9% killing [19]: 12.5 µg/mL | LD 90 = μg/ml 90% killing [20]: 6.25 µg/mL | MBC = μg/ml 99.9% killing [20]: 25 µg/mL | LD 90 = μg/ml 90% killing [21]: 12.5 µg/mL | MBC = μg/ml 99.9% killing [21]: 25 µg/mL | LD 90 = μg/ml 90% killing [22]: >100 µg/mL | MBC = μg/ml 99.9% killing [22]: >100 µg/mL | LD 90 = μg/ml 90% killing [23]: 100 µg/mL | MBC = μg/ml 99.9% killing [23]: >100 µg/mL | LD 90 = μg/ml 90% killing [24]: 6.25 µg/mL | MBC = μg/ml 99.9% killing [24]: 25 µg/mL | LD 90 = μg/ml 90% killing [25]: 3.125 µg/mL | MBC = μg/ml 99.9% killing [25]: 3.125 µg/mL

From US20110311601A1, “ANTIMICROBIAL MEDICAL DEVICES” (priority 2010, published 2011)
